From patent US4904697A, “Controlling the growth of certain tumor tissue with chalcone derivatives” (Merrell Dow Pharmaceuticals Inc., priority 1987, dated 1990) come the findings set out here.

In assay [1] the test system is B16 Melanoma. As to the kind of experiment: Survival of B16 melanoma bearing mice. It is filed as in vivo. An excerpt:
(§1) The effect of a chalcone derivative of structure 1 to control the growth of tumor tissue can be assessed in standard animal tumor models, for example, in the following animal tumor modes: (a) L1210 leukemia in mice, (b) EMT6 tumor in Balb/C mice, (c) 7,12-dimethylbenzanthracene-induced (DMBA-induced) mammary tumor in rats, and (d) Morris 7288C or 5123 hepatoma in Buffalo rats.
(§2) (B) Effect of α-methyl-4-Dimethylamino-2',5'-dimethoxychalcone On
(§3) the Growth and Survival of B16 Melanoma Bearing Mice
(§4) 1 × 10^5 B16 melanoma cells/animal were injected (s.c.) or
(§5) (i.p.)? on day 0. Compounds suspended in 5 percent polyvinylpyrrolidone
(§6) (PVP) were administered once daily (i.p. ) from day 1-15. For tumor growt
and weighed. For survival studies the survival days of each animal was
noted and average survival was determined.

The subject of assay [2] is HeLa cells. As to the kind of experiment: Mitotic accumulation (mitotic arrest) of HeLa cells. Type of assay: cell-based. The note with it: Homo sapiens, read-out: MITOTIC ARREST Minimum Effectice Concentration.
Procedure: Exponentially growing human carcinoma (HeLa) cells are plated at a densit
of 1 × 10^4 cells/well in a 24 well plate. The compounds were
dissolved in dimethylsulfoxide and diluted with complete medium. The cell
were innoculated with the medium containing the test compound either for
hours or 1 hour. For the 1 hour test, the cells were washed twice and
further grown for 18 hours in the presence of drug free medium. The
mitotic cells in the supernatent were collected and were pooled with the
trypsinized cells and cytopreps were made on slides using a
cytocentrifuge. The slides were fixed with Carnoy's solution, stained wit
acetoorcein, and the mitotic index was determined.
For assay [3], the system named is L1210 Leukemia. The assay can be described thus: Survival of L1210 leukemia in mice. It is filed as in vivo.
Excerpt: as §1
(C) Effect of α-methyl-4-Dimethylamino-2',5'-dimethoxychalcone
and Other Mitotic Inhibitors on the Survival of L1210 Leukemia in
1 × 10^5 leukemic cells/animal were inoculated (i.p.) on day
zero. The compounds were suspended or dissolved in 5% polyvinylpyrrolidon
(PVP) and administered once daily from day 1-9 (i.p.). The survival of th
animals was noted and average survival was determined.

In assay [4] the test system is HeLa cells. As to the kind of experiment: Growth inhibition of HeLa cells. It is filed as cell-based. Conditions: Homo sapiens, 72 h, read-out: GROWTH INHIBITION IC50. The procedure: For growth inhibition studies, exponentially growing HeLa cells were
incubated at a density of 1 × 10^5 cells/35 mm dish with a
number of dilutions of the test compound in the medium. The plates were
incubated at 37° C. in a CO2 incubation. At the end of 72
hours the cells were collected by trypinization and counted and the […]

A short description of assay [5]: Experimental Allergic Encephalomyelitis (EAE) in rats. It is filed as in vivo, rats (Lewis strain). Conditions: 25.0 mg/kg s.c. once every other day, day 1 through 10. An excerpt:
The compounds of structure 1 inhibit the destruction of myelin sheath surrounding the axons of the central nervous system. This myelin destruction is characteristic in those individuals suffering from multiple sclerosis. By preventing the destruction of myelin in multiple sclerosis patients, the compounds of structure 1 will prevent or reduce the progressive nature of the disease, prevent or increase the length of time between the recurrent episodes of the disease, and prevent or suppress the formation of the scarlike, multiple sclerotic plaques characteristic of the disease. […] This myelin brings about an immune response in the individual in which the myelin sheath is destroyed. EAE is an experimental model of multiple sclerosis.
Effect of α-methyl-4-dimethylamino-2',5'-dimethoxychalcone on
Experimental Allergic Encephalomyelitis (EAE) In Rats
EAE was induced in rats as described by Rosenthal and Nagra, Proc. Soc.
Exp. Biol. Med. 125, 149 (1967). Lewis strain rats ranging in weight from
100-200 g were sensitized with encephalitogenic emulsion consisting of
homogenized spinal cord in complete Freund's adjuvant. The test compound
and hydrocortisone (HC) were administered in polyvinylpyrrolidone vehicle
The test compound was administered i.p. once daily from day 1 through day
10. […]
10. The incidence of paralysis was recorded and mean paralysis time was […]

In assay [6] the test system is P388 Leukemia. The assay can be described thus: Survival of P388 leukemia bearing mice. Type of assay: in vivo.
Excerpt: as §1
(A) Effect of α-methyl-4-Dimethylamino-2',5'-dimethoxychalcone
on the Survival of P388 Leukemia Bearing Mice
1 × 10^5 P388 leukemia cells/animal were inoculated (i.p.) on
day zero. Compound was suspended in 5% polyvinylpyrrolidone (PVP) and was
administered (i.p.) once daily from day 1-9. The survival of the animals
was noted and the average survival was determined.

Assay [7] deals with B16 Melanoma. The assay can be described thus: Growth of B16 melanoma in mice (tumor weight). The note with it: for TUMOR GROWTH (Mean ± S.E., n = 10): tumors weighed day 18. Type of assay: in vivo.
Excerpt: as §1, §2, §3, §4, §5, §6
studies the animals were sacrificed on day 18, the tumors were excised,
and weighed. For survival studies the survival days of each animal was […]

Assay [8] concerns Human Choriotrophoblast Tumor (JAr). The assay can be described thus: Growth of human choriotrophoblast tumor (JAr) in athymic mice. Type of assay: in vivo.
Excerpt: as §1
(D) Effect of α-methyl-4-Dimethylamino-2',5'-
dimethoxychalcone On the Growth of Human
Choriotrophoblast Tumor (JAr) In Athymic Mice
JAr cells (1.5 × 10^6 cells/animal) were injected (s.c.) on day
zero. The compound, 4dimethylamino-2',5dimethoxychalcone, was suspended i
5 per cent polyvinylpyrrolidone (PVP) and administered (i.p.) once daily
as indicated. At the end of 12 days the animals were sacrificed, tumors

Where [9] appears, read: 0.2 mg/kg i.p. once daily day 1-15.
Setting [10] is: 0.20 mg/kg i.p. once daily day 1-9.
The mark [11] stands for this setting: 12.5 mg/kg i.p. once daily day 1-15.
[12] abbreviates: 25 mg/kg i.p. once daily day 1-15.
[13] abbreviates: 25 mg/kg i.p. once daily day 1-9.
The mark [14] stands for this setting: 50 mg/kg i.p. once daily day 1-9.
[15] abbreviates: 6.25 mg/kg i.p. once daily day 1-9.
The mark [16] stands for this setting: 12.5 mg/kg i.p. once daily day 1-9.
[17] abbreviates: 25.0 mg/kg i.p. once daily day 1-9.
The mark [18] stands for this setting: 50.0 mg/kg i.p. once daily day 1-9.
The mark [19] stands for this setting: 50 mg/kg i.p. once daily day 1-15.
Where [20] appears, read: 25 mg/kg i.p. once daily, day 1-11.
Setting [21] is: 25 mg/kg i.p. once daily, day 7-11.
Where [22] appears, read: 50 mg/kg i.p. once daily, day 1-11.
[23] abbreviates: 50 mg/kg i.p. once daily, day 7-11.

Structures are written as SMILES. ≈ marks a conversion by molar mass, not a printed value. Like-named read-outs stand apart in the source and are kept apart here.

One may read the IC50 as the concentration that inhibits the measured activity by half. Turning to `CC[C@]1(O)C[C@@H]2CN(CCc3c([nH]c4ccccc34)[C@@](C(=O)OC)(c3cc4c(cc3OC)N(C)[C@H]3[C@@](O)(C(=O)OC)[C@H](OC(C)=O)[C@]5(CC)C=CCN6CC[C@]43[C@@H]65)C2)C1` [VINBLASTINE, vinblastine, reference compound], in assay [1] (setting [9]), the “PERCENT T/C (survival)” value is 180% and the “SURVIVAL (MEAN ± S.E., n = 10)” value was found to be 25.2 ± 2.3 days. For the same compound, the minimal effective concentration in assay [2] (6 h) turned out to be 0.0015 µg/mL. Further, in assay [3] (setting [10]), the “PERCENT T/C (survival)” value is recorded as 140% and the “SURVIVAL TIME (Mean ± S.E., n = 20)” value came to 9.8 ± 0.4 days. Moreover, in assay [4], the IC50 was 0.015 µg/mL (≈ 0.0185 µM).

Consider `C[C@]12CCC(=O)C=C1CC[C@@H]1[C@@H]2[C@@H](O)C[C@@]2(C)[C@H]1CC[C@]2(O)C(=O)CO` [HYDROCORTISONE, hydrocortisone], for which, in assay [5], the “PERCENT INCIDENCE OF PARALYSIS” value came out at 74%. For the same compound, the “PARALYSIS TIME (Mean ± S.E.)” value in assay [5] (significant at p < 0.01) came out at 11.0 ± 0.28 days.

As for `CC[C@]1(O)C[C@H]2CN(CCc3c([nH]c4ccccc34)[C@@](C(=O)OC)(c3cc4c(cc3OC)N(C=O)[C@H]3[C@@](O)(C(=O)OC)[C@H](OC(C)=O)[C@]5(CC)C=CCN6CC[C@]43[C@@H]65)C2)C1` [VINCRISTINE, vincristine, reference compound], in assay [3] (setting [10]), the “PERCENT T/C (survival)” value is 146% and the “SURVIVAL TIME (Mean ± S.E., n = 20)” value is 10.2 ± 0.4 days.

Regarding `COc1ccc(OC)c(C(=O)C(C)=Cc2ccc(N(C)C)cc2)c1` [1-(2,5-dimethoxyphenyl)-3-[4-(dimethylamino)phenyl]-2-methyl-2-propen-1-one], the “PERCENT T/C (survival)” value in assay [1] (setting [11]) came out at 146%; in assay [1] (setting [12]), 183%; in assay [6] (setting [13]) it was 142%; in assay [6] (setting [14]) it was 141%; in assay [3] (setting [15]) it was 126%; in assay [3] (setting [16]), 137%. Besides, the results for the “PERCENT T/C (survival)” value in assay [3] (setting [17]) and in assay [3] (setting [18]) were 146% and 154%, respectively. For the same compound, the “SURVIVAL (MEAN ± S.E., n = 10)” value in assay [1] (setting [11]) turned out to be 20.4 ± 1.5 days; in assay [1] (setting [12]), 25.6 ± 4.8 days. Further, the minimal effective concentration in assay [2] (1 hour, then washed and grown 18 hours in drug free medium) turned out to be 0.06 µg/mL; in assay [2] (6 hours) it was 0.0038 µg/mL. Also, the “SURVIVAL TIME (Mean ± S.E., n = 10)” value in assay [6] (setting [13]) is 16.0 ± 1.5 days; in assay [6] (setting [14]) it was 15.8 ± 0.5 days. Besides, the “SURVIVAL TIME (Mean ± S.E., n = 20)” value in assay [3] (setting [15]) worked out at 8.8 ± 0.2 days; in assay [3] (setting [16]), 9.6 ± 0.3 days; in assay [3] (setting [17]), 10.2 ± 0.2 days; in assay [3] (setting [18]) it was 10.8 ± 0.4 days. Also, the “PERCENT INHIBITION (tumor growth)” value is 30% in assay [7] (setting [11]), 32% in assay [7] (setting [12]) and 45% in assay [7] (setting [19]). Moreover, the “TUMOR GROWTH (Mean ± S.E., n = 10)” value in assay [7] (setting [11]) came to 4.66 ± 0.56 g; in assay [7] (setting [12]), 4.5 ± 0.70 g; in assay [7] (setting [19]) it was 3.66 ± 0.83 g. The “PERCENT INHIBITION (tumor weight)” value in assay [8] (setting [20]) is reported as 29%; in assay [8] (setting [21]), 21%; in assay [8] (setting [22]) it was 65%; in assay [8] (setting [23]) it was 31%. Further, the “TUMOR WEIGHT (Means ± S.E., n = 6)” value came to 2.86 ± 0.38 g in assay [8] (setting [20]), 3.19 ± 0.61 g in assay [8] (setting [21]), 1.41 ± 0.32 g in assay [8] (setting [22]) and 2.70 ± 0.36 g in assay [8] (setting [23]).
